Laboratory results reported in patent US11389501B1, “Method for treating eye inflammation using anti-inflammatory composition having bioactive compound” (TCI CO., LTD., priority 2021, dated 2022).

Assays:
Format in all cases: cell-based
[1] = test system: VEGFA gene; experiment: qRT-PCR of VEGFA gene expression in blue light-irradiated human retinal pigment epithelial cells; conditions: ARPE-19 cells, 0.0125 mg/ml, incubated 24 h, then blue light 15 min; control group = 100%, comparative group (blue light only) 109.47%
From the text: (§1) In the present embodiment, an RNA extraction kit, a reverse transcriptase, and a KAPA SYBR® FAST qPCR reagent kit were used in conjunction with a quantitative PCR instrument to determine the changes in expression level of the genes associated with eye protection and anti-inflammation in human retinal pigment epithelial cells treated with the peptide having the amino acid sequence of SEQ ID NO.: 1. Further, the efficacy of the bioactive compound obtained from the cowhide peptides of the present disclosure in resisting blue light and preventing inflammatory reactions was confirmed.
(§2) 1. Cell strain: Human retinal pigment epithelial cell ARPE-19 (purchased from ATCC, product number CRL-2302). […]
(§3) The cell membranes of each group of human retinal pigment epithelial cells (i.e., the control group, the comparative group, and the experimental group) resulted from the cell treatment stage were broken with cell lysates. […] Then the cDNA of each group was subjected to a quantitative real-time reverse transcription polymerase chain reaction (qRT-PCR) using the ABI StepOnePlus™ Real-time PCR system (Thermo Fisher Scientific), KAPA SYBR FAST (Sigma, USA, product number 38220000000) and the primers listed in Table 3 (SEQ 1D NO.: 2 to SEQ ID NO.: 9) to assess the expression of VEGFA gene. […] Gene quantification was performed using a 2^−ΔCt method. […]

[2] = test system: IL-8 gene; experiment: qRT-PCR of IL-8 gene expression in blue light-irradiated human retinal pigment epithelial cells; conditions: ARPE-19 cells, 0.0125 mg/ml, incubated 24 h, then blue light 15 min; control group = 100%, comparative group (blue light only) 121.77%
From the text: as §1, §2, §3

[3] = test system: IL-1β gene; experiment: qRT-PCR of IL-1β gene expression in blue light-irradiated human retinal pigment epithelial cells; conditions: ARPE-19 cells, 0.0125 mg/ml, incubated 24 h, then blue light 15 min; control group = 100%, comparative group (blue light only) 109.21%
From the text: as §1, §2, §3

CC(C)C[C@H](NC(=O)[C@H](CO)NC(=O)[C@@H](NC(=O)[C@@H]1CCCN1C(=O)[C@H](CC(C)C)NC(=O)CNC(=O)[C@H](CO)NC(=O)[C@@H]1CCCN1C(=O)[C@H](CC(C)C)NC(=O)[C@H](CCCCN)NC(=O)C(N)C(C)O)C(C)C)C(=O)O (stereo partly drawn) [cowhide peptide, TKLPSGLPVSL]
expression of VEGFA gene relative to the control group [1]: 84.07%
expression of IL-8 gene relative to the control group [2]: 88.29%
expression of IL-1β gene relative to the control group [3]: 66.36%
